Measured values taken from patent EP0017525A1, “Derivatives of tetrahydroalstonine, their preparation and their application as medicaments” (PIERRE FABRE S.A., priority 1979, dated 1980).

Columns and labels:
[1] = test system: pression artérielle et membrane nictitante; assay: Adrenolytic activity in the anaesthetised cat; type: in vivo; conditions: chat
Text: (§1) Les propriétés adrénolytiques ont été recherchées chez le chat et le chien anesthésiés vis-à-vis de la pression artérielle et de la membrane nictitante (chat).

[2] = test system: excrétion urinaire provoquée par l'adrénaline; conditions: rat; for augmentation de l'excrétion urinaire provoquée par l'adrénaline: 100 mg par voie orale; for absorption par voie orale: in vivo, po
pression artérielle = assay: Adrenolytic activity and arterial pressure in the anaesthetised dog; type: in vivo; conditions: chien, 0,1 à 10 mg/kg par voie intraveineuse
Experimental: as §1
Cette activité ne s'accompagne pas de diminution de la force de contraction cardiaque. L'inversion de l'hypertension à l'adrénaline commence dès la dose de 0,05 mg/kg.

[3] = Acute toxicity, intravenous route; type: in vivo; conditions: mouse, in vivo, iv; souris, voie intraveineuse; read-out: DL 50 (the source's name)
Experimental: (§2) Par voie injectable les composés de formule I ont été administrés jusqu'à 100 mg/kg, sans provoquer de mortalité chez le rat. A titre d'exemple, on précisera que la DL 50 par voie intraveineuse chez la souris est de 330 mg/kg pour le tétrahydroalstonate de sodium. La toxicité du tétrahydroalstonate de créatinol chez la souris,par voie intraveineuse calculée selon la méthode de Kärber est de 450 mg/kg.

[4] = test system: agrégation à l'ADP, au collagène et à l'ADP + adrénaline; assay: In vitro aggregation induced by ADP, collagen and ADP + adrenaline; type: cell-based
Text: Les tétrahydroalstonates de sodium, de créatinol et d'imidazole sont actifs in vitro vis-à-vis de l'agrégation à l'ADP, au collagène et à l'ADP + adrénaline; les concentrations actives.variant de 1.10^-3M à 1.10^-5M selon les tests et les composés particuliers répondant à la formule générale I.

souris = assay: Acute toxicity, intravenous route; type: in vivo; conditions: voie intraveineuse, méthode de Kärber
Experimental: as §2

COC(=O)C1=COC(C)C2CN3CCc4c([nH]c5ccccc45)C3CC12 (stereo not drawn) [raubasine, reference compound]
dose pour laquelle l'adrénolyse est parfaitement nette [1]: 2 mg/kg

CC1OC=C(C(=O)O)C2CC3c4[nH]c5ccccc5c4CCN3CC12 (stereo not drawn) [tétrahydroalstonate de sodium, Tétrahydroalstonate de sodium]
augmentation de l'excrétion urinaire provoquée par l'adrénaline [2]: réduisent l'augmentation de l'excrétion urinaire provoquée par l'adrénaline
absorption par voie orale [2]: bonne absorption par voie orale
solubility (Solubility; 95% ethanol, organic solvent or mixture): 70 mg/mL
solubility (Solubility; chloroform, organic solvent or mixture): 35 mg/mL
solubility (Solubility; water): 90 mg/mL
activité adrénolytique comparée à la raubasine et à la tétrahydroalstonine ([1]; voie injectable): très nettement supérieure à celle de la raubasine et de la tétrahydroalstonine
pression artérielle (pression artérielle): diminution progressive de la pression artérielle proportionnelle à la dose
LD50 [3]: 330 mg/kg
agrégation à l'ADP [4]: actifs
agrégation à l'ADP + adrénaline [4]: actifs
agrégation au collagène [4]: actifs

COC(=O)C1=COC(C)C2CN3CCc4c([nH]c5ccccc45)C3CC12 (stereo not drawn) [tétrahydroalstonine, reference compound]
dose pour laquelle l'adrénolyse est parfaitement nette [1]: 0,5 mg/kg

Tétrahydroalstonate de créatinol
augmentation de l'excrétion urinaire provoquée par l'adrénaline [2]: réduisent l'augmentation de l'excrétion urinaire provoquée par l'adrénaline
absorption par voie orale [2]: bonne absorption par voie orale
Solubilités : éthanol à 95 (95% ethanol): 5%
Solubilités : eau (water): 5%
activité adrénolytique comparée à la raubasine et à la tétrahydroalstonine ([1]; voie injectable): très nettement supérieure à celle de la raubasine et de la tétrahydroalstonine
dose à laquelle les composés agissent (activité adrénolytique) ([1]; voie injectable): 0,1 mg/kg
pression artérielle (pression artérielle): diminution progressive de la pression artérielle proportionnelle à la dose
toxicité (souris): 450 mg/kg
agrégation à l'ADP [4]: actifs
agrégation à l'ADP + adrénaline [4]: actifs
agrégation au collagène [4]: actifs

tétrahydroalstonate d'imidazole
agrégation à l'ADP [4]: actifs
agrégation à l'ADP + adrénaline [4]: actifs
agrégation au collagène [4]: actifs
